The record followed here is US5466687A, “Arylidene-1-azacycloalkanes and arylalkyl-1-azacyclo-alkanes, their salts, medicaments containing these compounds and their use, and processes for their preparation” (priority 1992, dated 1995).

The subject of assay [1] is human hepatoma cells (HEP-G2). The assay is described as follows: Inhibition of 14C-acetate incorporation in digitonin-precipitatable steroids in HEP-G2 cells. The class given is cell-based. The following applies: for percent change in 14C-acetate incorporation into sterols at 0.1 µM / percent change in 14C-acetate incorporation into sterols at 0.01 µM: Homo sapiens; for percent change in 14C-acetate incorporation into sterols at 0.1 µM: HepG2, 10^-7 mol/l; for percent change in 14C-acetate incorporation into sterols at 0.01 µM: HepG2, 10^-8 mol/l. The procedure: I. Measurement of the inhibition of ^14 C-acetate incorporation in digitonin-precipitatable steroids:
After 3 days of culture, human hepatoma cells (HEP-G2) are stimulated for 16 hours in cholesterol-free medium. The substances to be tested (dissolved in dimethyl sulphoxide, final concentration 0.1%) are added during this stimulation phase. After the addition of 200 μmol/l of 2-^14 C-acetate, the mixture is then reincubated at 37° C. for a further 2 hours.
The cells are detached and the sterol esters are hydrolyzed and, after extraction, sterols are precipitated using digitonin. The ^14 C-acetate incorporated into digitonin-precipitatable sterols is determined by scintillation measurement.
The investigation of the inhibitory action was carried out at test concentrations of 10^-7 mol/l and 10^-8 mol/l. The test results of the following compounds A to AG of the general formula I are indicated at these test concentrations by way of example: […]

The subject of assay [2] is 2,3-epoxysqualene-lanosterol cyclase. Put plainly: In vivo effect in the rat after oral administration: 2,3-epoxysqualene level in plasma. Also noted: species or system rat (male Wistar). Particulars: 5 hours after administration. As for the experimental part:
II. Measurement of the in vivo effect in the rat after oral administration
The inhibition of the enzyme 2,3-epoxysqualene-lanosterol cyclase causes an increase in the 2,3-epoxy-squalene level in the liver and plasma. Therefore, the amount of 2,3-epoxysqualene formed therefore serves as a direct measure of the effectiveness in the whole animal. The determination is carried out by the following method:
The test substance suspended in 1.5% strength aqueous methylcellulose is administered via stomach tube to male Wistar rats (160-190 g body weight). 5 hours after administration, blood is obtained retroorbitally from the venous plexus. Plasma is extracted by the method of Bligh and Dyer (Canad. J. Biochem. Physiol. 37, 912, [1959]), purified by means of a precolumn and then analyzed by means of HPLC. The peaks obtained are identified and quantified by means of calibration substances. An internal standard is used to check the reproducibility of the results.
The investigations were carried out using concentrations of 0.1 and 1.0 mg/kg. The results for the above mentioned substances A to M are compiled in the following Table by way of example: […]

`O=C(c1ccccc1)N1CCC(=Cc2ccc(C3=NCCO3)cc2)CC1` [AA, 1-benzoyl-4-[4-(2-oxazolin-2-yl)benzylidene]piperidine]: in assay [1], the percent change in 14C-acetate incorporation into sterols at 0.1 µM was -70% and the percent change in 14C-acetate incorporation into sterols at 0.01 µM was -25%.
For the compound `CC(C)(C)c1ccc(C(=O)N2CCC(=Cc3ccc(C4=NCCO4)cc3)CC2)cc1` [AB, 1-(4-tert.butylbenzoyl)-4-[4-(2-oxazolin-2-yl)benzylidene]piperidine], in assay [1], the percent change in 14C-acetate incorporation into sterols at 0.1 µM was -18% and the percent change in 14C-acetate incorporation into sterols at 0.01 µM is -6%.
In the case of `COc1ccc(C(=O)N2CCC(=Cc3ccc(C4=NCCO4)cc3)CC2)cc1` [AC, 1-(4-methoxybenzoyl)-4-[4-(2-oxazolin-2-yl)benzylidene]piperidine], in assay [1], the percent change in 14C-acetate incorporation into sterols at 0.1 µM is -25% and the percent change in 14C-acetate incorporation into sterols at 0.01 µM is -16%.
For `O=C(c1ccc(Br)cc1)N1CCC(=Cc2ccc(C3=NCCO3)cc2)CC1` [AD, 1-(4-bromobenzoyl)-4-[4-(2-oxazolin-2-yl)benzylidene]piperidine], in assay [1], the percent change in 14C-acetate incorporation into sterols at 0.1 µM was -85% and the percent change in 14C-acetate incorporation into sterols at 0.01 µM is -44%.
As for `O=C(c1ccc([N+](=O)[O-])cc1)N1CCC(=Cc2ccc(C3=NCCO3)cc2)CC1` [AE, 1-(4-nitrobenzoyl)-4-[4-(2-oxazolin-2-yl)benzylidene]piperidine], in assay [1], the percent change in 14C-acetate incorporation into sterols at 0.1 µM was -71% and the percent change in 14C-acetate incorporation into sterols at 0.01 µM was -22%.
As to `O=C(Cc1ccc(Cl)cc1)N1CCC(=Cc2ccc(C3=NCCO3)cc2)CC1` [AF, 1-(4-chlorophenylacetyl)-4-[4-(2-oxazolin-2-yl)benzylidene]piperidine], in assay [1], the percent change in 14C-acetate incorporation into sterols at 0.1 µM was -63% and the percent change in 14C-acetate incorporation into sterols at 0.01 µM is -22%.
In the same order, the values of `O=C(c1cccc2ccccc12)N1CCC(=Cc2ccc(C3=NCCO3)cc2)CC1` [AG, 1-(1-naphthylcarbonyl)-4-[4-(2-oxazolin-2-yl)benzylidene]piperidine] are -67% and -30%.
Regarding `O=C(c1ccc(Cl)cc1)N1CCC(=Cc2ccc(C3=NCCCO3)cc2)CC1` [B, 1-(4-chlorobenzoyl)-4-[4-(4,5-dihydro-6H-oxazin-2-yl)benzylidene]piperidine], in assay [1], the percent change in 14C-acetate incorporation into sterols at 0.1 µM is -77% and the percent change in 14C-acetate incorporation into sterols at 0.01 µM is -51%. The “2,3-Epoxysqualene concentration in plasma (rat)” value (shortened to “2,3-Epoxysqualene concentration”) in assay [2] (0.1 mg/kg oral) is 0.46 µg/mL. The “2,3-Epoxysqualene concentration” value in assay [2] (1.0 mg/kg oral) is 3.14 µg/mL.
Take `O=C(c1ccc(C(F)(F)F)cc1)N1CCC(=Cc2ccc(C3=NCCO3)cc2)CC1` [C, 4-[4-(2-oxazolin-2-yl)benzylidene]-1-(4-trifluoromethylbenzoyl)piperidine]: in assay [1], the percent change in 14C-acetate incorporation into sterols at 0.1 µM was -90% and the percent change in 14C-acetate incorporation into sterols at 0.01 µM is -74%. The “2,3-Epoxysqualene concentration” value in assay [2] (0.1 mg/kg oral) amounted to 0.91 µg/mL. Moreover, the “2,3-Epoxysqualene concentration” value in assay [2] (1.0 mg/kg oral) was 5.90 µg/mL.
For `Cc1cc(C(=O)N2CCC(=Cc3ccc(C4=NCCO4)cc3)CC2)ccc1Cl` [D, 1-(4-chloro-3-methylbenzoyl)-4-[4-(2-oxazolin-2-yl)benzylidene]piperidine], in assay [1], the percent change in 14C-acetate incorporation into sterols at 0.1 µM was -88% and the percent change in 14C-acetate incorporation into sterols at 0.01 µM is -55%. For the same compound, the “2,3-Epoxysqualene concentration” value in assay [2] (0.1 mg/kg oral) turned out to be 0.78 µg/mL. Besides, the “2,3-Epoxysqualene concentration” value in assay [2] (1.0 mg/kg oral) was 3.35 µg/mL.
For `O=C(c1ccc(F)cc1)N1CCC(=Cc2ccc(C3=NCCO3)cc2)CC1` [E, 1-(4-fluorobenzoyl)-4-[4-(2-oxazolin-2-yl)benzylidene]piperidine], in assay [1], the percent change in 14C-acetate incorporation into sterols at 0.1 µM is -81% and the percent change in 14C-acetate incorporation into sterols at 0.01 µM was -36%. For the same compound, the “2,3-Epoxysqualene concentration” value in assay [2] (0.1 mg/kg oral) is 0.67 µg/mL. Also, in assay [2] (1.0 mg/kg oral), the “2,3-Epoxysqualene concentration” value was found to be 6.09 µg/mL.
Take `O=C(c1ccc(Cl)s1)N1CCC(=Cc2ccc(C3=NCCO3)cc2)CC1` [F, 1-(5-chloro-2-thienoyl)-4-[4-(2-oxazolin-2-yl)benzylidene]piperidine]: the “inhibition of 14C-acetate incorporation” value in assay [1] (10^-8 mol/l) was -55%. The percent change in 14C-acetate incorporation into sterols at 0.1 µM in assay [1] is -84%. The “2,3-Epoxysqualene concentration” value in assay [2] (0.1 mg/kg oral) is 0.00 µg/mL; in assay [2] (1.0 mg/kg oral), 2.00 µg/mL.
Consider `O=S(=O)(c1ccc(Cl)cc1)N1CCC(=Cc2ccc(C3=NCCO3)cc2)CC1` [N, 1-(4-chlorobenzenesulphonyl)-4-[4-(2-oxazolin-2-yl)benzylidene]piperidine], for which, in assay [1], the percent change in 14C-acetate incorporation into sterols at 0.1 µM was -86% and the percent change in 14C-acetate incorporation into sterols at 0.01 µM was -63%.
Turning to `O=S(=O)(c1ccc(Cl)cc1)N1CCC(=Cc2ccc(C3=NCCN3)cc2)CC1` [O, 1-(4-chlorobenzenesulphonyl)-4-[4-(2-imidazolin-2-yl)benzylidene]piperidine], in assay [1], the percent change in 14C-acetate incorporation into sterols at 0.1 µM was -45% and the percent change in 14C-acetate incorporation into sterols at 0.01 µM is -1%.
With `O=C(c1ccc(Cl)cc1)N1CCC(Cc2ccc(C3=NCCS3)cc2)CC1` [P, 1-(4-chlorobenzoyl)-4-[4-(2-thiazolin-2-yl)benzyl]piperidine], in assay [1], the percent change in 14C-acetate incorporation into sterols at 0.1 µM was -14% and the percent change in 14C-acetate incorporation into sterols at 0.01 µM was -5%.
In the same order, the values of `C[C@H]1CN=C(c2ccc(C=C3CCN(C(=O)c4ccc(Cl)cc4)CC3)cc2)O1` [Q, 1-(4-chlorobenzoyl)-4-[4-(S-5-methyl-2-oxazolin-2-yl)benzylidene]piperidine] are -89% and -44%.
`C[C@@H]1COC(c2ccc(C=C3CCN(C(=O)c4ccc(Cl)cc4)CC3)cc2)=N1` [R, 1-(4-chlorobenzoyl)-4-[4-(R-4-methyl-2-oxazolin-2-yl)benzylidene]piperidine]: in assay [1], the percent change in 14C-acetate incorporation into sterols at 0.1 µM was -88% and the percent change in 14C-acetate incorporation into sterols at 0.01 µM is -57%.
In the case of `O=C(c1ccc(Cl)cc1)N1CCC(=Cc2ccc(C3=NCC(c4ccccc4)O3)cc2)CC1` (stereo not drawn) [S, 1-(4-chlorobenzoyl)-4-[4-(5-phenyl-2-oxazolin-2-yl)benzylidene]piperidine], in assay [1], the percent change in 14C-acetate incorporation into sterols at 0.1 µM is -24% and the percent change in 14C-acetate incorporation into sterols at 0.01 µM worked out at 0%.
Take `CCN(CC)CC1CN=C(c2ccc(C=C3CCN(C(=O)c4ccc(Cl)cc4)CC3)cc2)O1` (stereo not drawn) [T, 1-(4-chlorobenzoyl)-4-[4-(5-diethylaminomethyl-2-oxazolin-2-yl)benzylidene]piperidine]: in assay [1], the percent change in 14C-acetate incorporation into sterols at 0.1 µM is -57% and the percent change in 14C-acetate incorporation into sterols at 0.01 µM was -29%.
For the compound `O=C(c1ccc(Cl)cc1)N1CCC(=Cc2ccc(C3=NC(CO)CO3)cc2)CC1` (stereo not drawn) [U, 1-(4-chlorobenzoyl)-4-[4-(4-hydroxymethyl-2-oxazolin-2-yl)benzylidene]piperidine], in assay [1], the percent change in 14C-acetate incorporation into sterols at 0.1 µM is -60% and the percent change in 14C-acetate incorporation into sterols at 0.01 µM was -21%.
For the compound `O=C(c1ccc(Cl)cc1)N1CCC(=Cc2ccc(C3=N[C@@H](Cc4ccccc4)CO3)cc2)CC1` [V, 4-[4-(S-4-benzyl-2-oxazolin-2-yl)benzylidene]-1-(4-chlorobenzoyl)piperidine], in assay [1], the percent change in 14C-acetate incorporation into sterols at 0.1 µM was -29% and the percent change in 14C-acetate incorporation into sterols at 0.01 µM was -15%.
On to `CC(=C1CCN(C(=O)c2ccc(Cl)cc2)CC1)c1ccc(C2=NCCO2)cc1` [W, 1-(4-chlorobenzoyl)-4-[4-(2-oxazolin-2-yl)-α-methylbenzylidene]piperidine], for which, in assay [1], the percent change in 14C-acetate incorporation into sterols at 0.1 µM is -77% and the percent change in 14C-acetate incorporation into sterols at 0.01 µM was -35%.
Regarding `O=C(c1ccc(Cl)s1)N1CCC(=Cc2ccc(C3=NCCO3)cc2)CC1` [X, 1-(5-chloro-2-thienoyl)-4-[4-(2-oxazolin-2-yl)benzylidene]piperidine], the “inhibition of 14C-acetate incorporation” value in assay [1] (10^-7 mol/l) is on record as -84%; in assay [1] (10^-8 mol/l), -35%.
On to `N#Cc1ccc(C(=O)N2CCC(=Cc3ccc(C4=NCCO4)cc3)CC2)cc1` [Y, 1-(4-cyanobenzoyl)-4-[4-(2-oxazolin-2-yl)benzylidene]piperidine], for which, in assay [1], the percent change in 14C-acetate incorporation into sterols at 0.1 µM is -74% and the percent change in 14C-acetate incorporation into sterols at 0.01 µM is -51%.
On to `O=C(c1c(F)c(F)c(F)c(F)c1F)N1CCC(=Cc2ccc(C3=NCCO3)cc2)CC1` [Z, 4-[4-(2-oxazolin-2-yl)benzylidene]-1-(pentafluorobenzoyl)piperidine], for which, in assay [1], the percent change in 14C-acetate incorporation into sterols at 0.1 µM was -45% and the percent change in 14C-acetate incorporation into sterols at 0.01 µM is -8%.
